Data on 33 substances can be found in US12497610B2, “Functional genomics using CRISPR-CAS systems for saturating mutagenesis of non-coding elements, compositions, methods, libraries and applications thereof” (THE BROAD INSTITUTE, INC., priority 2015, dated 2025).

In this data set the test system is human BCL11A erythroid enhancer. Description: Tiled pooled CRISPR-Cas9 screen for in situ functional mapping of the human BCL11A erythroid enhancer (HbF-high/HbF-low sort, sgRNA deep sequencing). The data set is classed as cell-based. To be noted: for Enrichment Score: HbF enrichment, human library NGG and NGG RC sgRNAs filtered for enrichment score >0.259; for Dropout Score: human library sgRNAs that produced HbF enrichment over 0.259. The source says:
Every 20-mer sequence upstream of an NGG or NAG PAM sequence on the sense or anti-sense strand was identified for both the human and mouse orthologous +55, +58, and +62 DNase hypersensitive site (DHS) as well as BCL11A/BCL11a exon 2. Relative to the human hg 19 reference genome, a reference was used with the following substitutions to approximate a common low-HbF associated haplotype: rs1427407-G, rs1896293-T, rs6706648-T, rs6738440-G, rs7606173-C. Each of the sgRNA oligos were synthesized as previously described (37,41,64) and cloned using a Gibson Assembly master mix (New England Biolabs) into lentiGuide-Puro (Addgene plasmid ID 52963) BsmBI digested, PCR purified, and dephosphorylated. Gibson Assembly products were transformed to electrocompetent E. cloni cells (Lucigen). Sufficient colonies were isolated to ensure 90X library coverage for both human and mouse libraries. Plasmid libraries were deep sequenced (described below) to confirm representation.
Tiled Pooled CRISPR-Cas9 Screen for In Situ Functional Mapping the Human BCL11A Erythroid Enhancer.
HUDEP clone 2 (HUDEP-2) was utilized as previously described by from Nakamura and colleagues (49). HUDEP-2 cells were expanded in StemSpan SFEM (Stem Cell Technologies) supplemented with 10^−6 M dexamethasone (Sigma), 100 ng/mL human stem cell factor (SCF) (R&D), 3 IU/mL erythropoietin (Amgen), 1% L-glutamine (Life Technologies), and 2% penicillin/streptomycin (Life Technologies). 1 μg/mL doxycycline (Sigma) was included in the culture to induce expression of the human papilloma virus type 16 E6/E7 genes (49). HUDEP-2 cells were differentiated in Iscove's Modified Dulbecco's Medium (IMDM) supplemented with 330 μg/mL halo-transferrin (Sigma), 10 μg/mL recombinant human insulin (Sigma), 2 IU/mL heparin (Sigma), 5% human solvent detergent pooled plasma AB (Rhode Island Blood Center), 3 IU/mL erythropoietin (Amgen), 100 ng/mL human stem cell factor (SCF) (R&D), 1 μg/mL doxycycline (Sigma), 1% L-glutamine (Life Technologies), and 2% penicillin/streptomycin (Life Technologies).
HUDEP-2 cells with stable Cas9 expression were transduced at low multiplicity with the human sgRNA library lentivirus pool while in expansion medium. […] Cell numbers were maintained throughout the experiment at levels adequate to exceed 1000× representation of the library. 10 μg/mL blasticidin (Sigma) and 1 μg/mL puromycin (Sigma) were added 24 hours after transduction to select for lentiviral library integrants in cells with Cas9. Cells were cultured in expansion media for one week followed by differentiation media for an additional week.
Intracellular staining was performed by fixing cells with 0.05% glutaraldehyde (grade II) (Sigma) for 10 minutes at room temperature. Cells were centrifuged for 5 minutes at 350 g and then resuspended in 0.1% Triton-X100 (Life Technologies) for 5 minutes at room temperature for permeabilization. Triton X-100 was diluted with phosphate buffered saline (PBS) and then centrifuged at 350 g for 15 minutes. Cells were stained with anti-human antibodies for HbF (clone HbF-1 with FITC or APC conjugation; Life Technologies) and B-hemoglobin antibody (clone 37-8 with PerCP-Cy5 or PE conjugation; Santa Cruz) for 20 minutes in the dark. Cells were washed to remove unbound antibody prior to FACS analysis. 0.2 μg HbF and 2 μg of HbA CB-hemoglobin) antibodies were used per 5 million cells. Control cells exposed to a nontargeting sgRNA sample and BCL11A exon 2 were used as negative and positive controls respectively to establish flow cytometry conditions. Populations of cells with the top and bottom 10% of expression of HbF were sorted by FACS.
After sorting the HbF-high and HbF-low pools, library preparation and deep sequencing was performed as previously described (37). Briefly, genomic DNA was extracted using the Qiagen Blood and Tissue kit. […]

As for “BCL_02001_H_exon2 (guide CCACAGCTTTTTCTAAGCAGNGGRC; listed as DNA, chemistry not given here)”, the “Enrichment Score” value is listed as 0.4913 and the “Dropout Score” value was −0.2495.
Take “BCL_02010_H_exon2 (guide CCCCTTCTGGAGCTCCCAACNGGRC; listed as DNA, chemistry not given here)”: the “Enrichment Score” value turned out to be 0.5003 and the “Dropout Score” value is recorded as −0.1463.
On to “BCL_00227_H_D62 (guide ATCCCAGCACTTTGGGAGGCNGG; listed as DNA, chemistry not given here)”, for which the “Enrichment Score” value was found to be 0.79 and the “Dropout Score” value is given as −8.099.
Regarding “BCL_00248_H_exon2 (guide ACAGATGATGAACCAGACCANGG; listed as DNA, chemistry not given here)”, the “Enrichment Score” value was 1.609 and the “Dropout Score” value was −2.532.
Turning to “BCL_00262_H_exon2 (guide CCTCTGCTTAGAAAAAGCTGNGG; listed as DNA, chemistry not given here)”, the “Enrichment Score” value stood at 1.001 and the “Dropout Score” value was −1.352.
The like results for “BCL_00259_H_exon2 (guide CCAGATGAACTTCCCATTGGNGG; listed as DNA, chemistry not given here)” were, in that order, 3.266 and −3.321.
Take “BCL_02007_H_exon2 (guide GGCACTGCCCACAGGTGAGGNGGRC; listed as DNA, chemistry not given here)”: the “Enrichment Score” value is on record as 3.351 and the “Dropout Score” value is −1.662.
For the substance “BCL_00266_H_exon2 (guide TCCCGTGGAGGTTGGCATCCNGG; listed as DNA, chemistry not given here)”, the “Enrichment Score” value came to 0.5889 and the “Dropout Score” value is reported as −0.1802.
With “BCL_00058_H_D55 (guide CCTCTATGTAGACGGGTGTGNGG; listed as DNA, chemistry not given here)”, the “Enrichment Score” value was determined as 0.3237 and the “Dropout Score” value was −0.4848.
For “BCL_00084_H_D55 (guide AGGGTGTGCCCTGAGAAGGTNGG; listed as DNA, chemistry not given here)”, the “Enrichment Score” value is listed as 0.311 and the “Dropout Score” value was −0.3691.
For “BCL_01826_H_D62 (guide TTTGCTCTTCTCCAGGGTGTNGGRC; listed as DNA, chemistry not given here)”, the “Enrichment Score” value stood at 0.4003 and the “Dropout Score” value is on record as −0.3386.
Take “BCL_00263_H_exon2 (guide GAAAAAAGCATCCAATCCCGNGG; listed as DNA, chemistry not given here)”: the “Enrichment Score” value worked out at 0.6213 and the “Dropout Score” value is reported as −2.115.
Consider “BCL_00210_H_D62 (guide TAAACAGCCACCCCACACCCNGG; listed as DNA, chemistry not given here)”, for which the “Enrichment Score” value is on record as 0.7026 and the “Dropout Score” value was −0.8705.
In the case of “BCL_00253_H_exon2 (guide CCCGTTGGGAGCTCCAGAAGNGG; listed as DNA, chemistry not given here)”, the “Enrichment Score” value was 1.205 and the “Dropout Score” value is on record as −1.968.
Turning to “BCL_00185_H_D58 (guide GCAAACGGCCACCGATGGAGNGG; listed as DNA, chemistry not given here)”, the “Enrichment Score” value is on record as 0.3196 and the “Dropout Score” value is reported as −0.516.
On to “BCL_02000_H_exon2 (guide TCGATTGGTGAAGGGGAAGGNGGRC; listed as DNA, chemistry not given here)”, for which the “Enrichment Score” value is reported as 0.4624 and the “Dropout Score” value was −1.365.
For “BCL_01626_H_D55 (guide TTTGGCCTCTGATTAGGGTGNGGRC; listed as DNA, chemistry not given here)”, the “Enrichment Score” value was 1.336 and the “Dropout Score” value was −0.2724.
As to “BCL_00249_H_exon2 (guide TGAACCAGACCACGGCCCGTNGG; listed as DNA, chemistry not given here)”, the “Enrichment Score” value came to 1.175 and the “Dropout Score” value is listed as −0.8221.
“BCL_02005_H_exon2 (guide GTTCATCTGGCACTGCCCACNGGRC; listed as DNA, chemistry not given here)”: the “Enrichment Score” value amounted to 3.202 and the “Dropout Score” value is on record as −1.837.
“BCL_01638_H_D58 (guide CATCGGTGGCCGTTTGCCCANGGRC; listed as DNA, chemistry not given here)”: the “Enrichment Score” value was determined as 0.635 and the “Dropout Score” value was −0.5928.
“BCL_00086_H_D55 (guide CTCCAAGCATTGCATCATCCNGG; listed as DNA, chemistry not given here)”: the “Enrichment Score” value worked out at 0.6343 and the “Dropout Score” value is listed as −0.2703.
Turning to “BCL_01993_H_exon2 (guide ACCTGGATGCCAACCTCCACNGGRC; listed as DNA, chemistry not given here)”, the “Enrichment Score” value turned out to be 1.974 and the “Dropout Score” value is −1.736.
“BCL_01621_H_D58 (guide CACAGGCTCCAGGAAGGGTTNGGRC; listed as DNA, chemistry not given here)”: the “Enrichment Score” value worked out at 2.319 and the “Dropout Score” value is given as −0.6005.
Taken in the same sequence, the figures for “BCL_00254_H_exon2 (guide GATCATGACCTCCTCACCTGNGG; listed as DNA, chemistry not given here)” were 2.198 and −2.256.
On to “BCL_02008_H_exon2 (guide AGGAGGTCATGATCCCCTTCNGGRC; listed as DNA, chemistry not given here)”, for which the “Enrichment Score” value is on record as 0.3495 and the “Dropout Score” value was −0.4482.
On to “BCL_01834_H_D62 (guide TATCAGAAGGGAACTGTTTGNGGRC; listed as DNA, chemistry not given here)”, for which the “Enrichment Score” value stood at 0.4029 and the “Dropout Score” value is on record as 0.02327.
With “BCL_01639_H_D58 (guide ATCGGTGGCCGTTTGCCCAGNGGRC; listed as DNA, chemistry not given here)”, the “Enrichment Score” value was found to be 0.8219 and the “Dropout Score” value was −0.8981.
Taken in the same sequence, the figures for “BCL_01627_H_D58 (guide TTGGCCTCTGATTAGGGTGGNGGRC; listed as DNA, chemistry not given here)” were 0.3054 and −0.2564.
As for “BCL_01634_H_D58 (guide TGGGTGGGGTAGAAGAGGACNGGRC; listed as DNA, chemistry not given here)”, the “Enrichment Score” value is on record as 0.4147 and the “Dropout Score” value is recorded as −1.078.
The like results for “BCL_00186_H_D58 (guide CACGCCCCCACCCTAATCAGNGG; listed as DNA, chemistry not given here)” were, in that order, 0.8971 and −0.7965.
Taken in the same sequence, the figures for “BCL_00181_H_D58 (guide CCTTCCGAAAGAGGCCCCCCNGG; listed as DNA, chemistry not given here)” were 0.3399 and 0.2621.
The like results for “BCL_01427_H_D55 (guide GGCTAAATAATGAATGTCCCNGGRC; listed as DNA, chemistry not given here)” were, in that order, 0.367 and −0.2716.
Take “BCL_00131_H_D58 (guide TGGGGAGAGAAGAGTGGAAANGG; listed as DNA, chemistry not given here)”: the “Enrichment Score” value was 0.2698 and the “Dropout Score” value was −0.3654.
